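96-well plates; 48 h exposure; 5 concentrations. Endpoints by linear interpolation between flanking doses. Not reached: highest tested concentration assigned. The concentration for 50% growth inhibition is given as GI50. At the TGI there is no net growth.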
Assays:
Assay in all cases: growth of human tumour cells (NCI), 48 h
[1] = test system: A498 renal
[2] = test system: LOX IMVI melanoma
[3] = test system: 786-0 renal
[4] = test system: SF-295 CNS
[5] = test system: OVCAR-8 ovarian
[6] = test system: HCT-116 colon
[7] = test system: HOP-62 NSCLC
[8] = test system: OVCAR-4 ovarian
[9] = test system: MDA-MB-231 breast
[10] = test system: HS 578T breast

SMILES | TGI [1] [µM] | TGI [2] [µM] | TGI [3] [µM] | TGI [4] [µM] | TGI [5] [µM] | TGI [6] [µM] | TGI [7] [µM] | TGI [8] [µM] | TGI [9] [µM] | GI50 [1] [µM] | GI50 [3] [µM] | GI50 [8] [µM] | GI50 [9] [µM] | GI50 [10] [µM] | TGI [10] [µM] | GI50 [6] [µM] | GI50 [7] [µM] | GI50 [4] [µM] | GI50 [2] [µM] | GI50 [5] [µM]
COC(=O)[C@]1(C)C(OC)=CC(=O)C2C1[C@H]1CCC[C@@H]21 (stereo partly drawn) | > 100 | > 100 | > 100 | > 100 | > 100 | > 100 | > 100 | – | – | – | – | – | – | – | – | – | – | – | – | –
COC(=O)C(CC(=O)c1c[nH]c2ccccc12)c1c[nH]c2ccccc12 (stereo not drawn) | 40 | – | 57.7 | > 10 | 65 | 31.6 | 54.8 | 40.2 | – | – | – | – | – | – | – | – | – | – | – | –
[N-]=[N+]=CC(=O)COC(=O)c1ccccc1 | > 100 | > 100 | > 100 | > 100 | > 100 | > 100 | > 100 | > 100 | > 100 | – | – | – | – | – | – | – | – | – | – | –
S=P(N1CCCC1)(N1CC1)N1CC1 | > 100 | > 100 | > 100 | > 100 | > 100 | > 100 | > 100 | > 100 | – | – | – | – | – | – | – | – | – | – | – | –
CCOC(=O)c1c(-c2ccccc2)c(C(OC(c2ccccc2)c2c(-c3ccccc3)c(C(=O)OCC)n3ccccc23)c2ccccc2)c2ccccn12 (stereo not drawn) | – | > 100 | > 100 | > 100 | > 100 | > 100 | > 100 | > 100 | – | – | – | – | – | – | – | – | – | – | – | –
Nc1ccc(C(=O)CC2(O)C(=O)Nc3c(Cl)cc(Cl)cc32)cc1 (stereo not drawn) | > 100 | > 100 | > 100 | > 100 | > 100 | > 100 | > 100 | > 100 | – | – | – | – | – | – | – | – | – | – | – | –
COc1cc(C2c3cc4c(cc3[C@@H](OCCN(C)C)C3COC(=O)[C@H]23)OCO4)cc(OC)c1O (stereo partly drawn) | 0.713 | 1.27 | 0.663 | 0.998 | 2.17 | 7.33 | 0.241 | 6.33 | – | – | – | – | – | – | – | – | – | – | – | –
Cc1ccc(/C=C2/NC(=S)SC2=O)cc1 | – | > 100 | > 100 | > 100 | > 100 | > 100 | > 100 | > 100 | 83.4 | – | – | – | – | – | – | – | – | – | – | –
CN1C(=O)C2C=CC1C1CCC2N(C)C1=O (stereo not drawn) | > 100 | > 100 | > 100 | > 100 | > 100 | > 100 | – | > 100 | – | – | – | – | – | – | – | – | – | – | – | –
O=c1cc(-c2ccccn2)[nH]c2cc(F)ccc12 | – | > 100 | > 100 | > 100 | > 100 | > 100 | > 100 | > 100 | – | – | – | – | – | – | – | – | – | – | – | –
CC[C@H](Nc1nc(N)nc(C2CC2)c1C#N)c1nc2cccc(NCc3ccc(C(=O)NO)cc3)c2c(=O)n1-c1ccccc1 | 3.69 | – | 3.36 | – | – | 2.71 | 4.29 | > 100 | 3.86 | 1.7 | 1.68 | 2.6 | 1.42 | 2.8 | 9.51 | 1.25 | 1.63 | – | – | –
CCCCCCCCCCCCCCCCCCNC(=O)OCC(CNS(=O)(=O)CCC[n+]1cccc2ccccc21)COC (stereo not drawn) | 64.9 | – | > 43.5 | 30.3 | > 26.1 | 5.78 | 38.9 | 7.01 | 4.05 | – | – | – | – | – | 5.35 | – | – | – | – | –
Cc1c(Cl)cccc1NC(=O)/C(Cl)=C(\Cl)C(=O)O | > 100 | 32.7 | 33.3 | 37.9 | – | 27.4 | 78.5 | 31.6 | – | – | – | – | – | – | – | – | – | – | – | –
COC(=O)C1Cc2c([nH]c3ccccc23)C(c2ccccc2O)N1Cc1ccccc1 (stereo not drawn) | 37.8 | > 46.4 | 31.2 | 42.6 | > 46.4 | > 31.6 | > 63.5 | 33.6 | – | – | – | – | – | – | – | – | – | – | – | –
COc1c(Sc2ccccc2)cc(Sc2ccccc2)c2cccnc12 | 82.3 | 42.7 | 65.9 | 78.6 | > 100 | > 100 | > 100 | 61.9 | – | – | – | – | – | – | – | – | – | – | – | –
CC1=NOC(=O)C1N=Nc1ccc(Br)c(C)c1 (stereo not drawn) | 36.2 | – | 38.8 | 66.4 | 32.7 | 33.9 | 48.4 | 29.3 | – | – | – | – | – | – | – | – | – | – | – | –
COC(=O)[C@H]1N[C@@H](C(=O)OC)C23CCC[C@H]2CC[C@]1(C(OC)OC)C3 | > 100 | > 100 | > 100 | > 100 | > 100 | > 100 | > 100 | > 100 | – | – | – | – | – | – | – | – | – | – | – | –

SMILES | TGI [1] [µM] | TGI [2] [µM] | TGI [3] [µM] | TGI [4] [µM] | TGI [5] [µM] | TGI [6] [µM] | TGI [7] [µM] | TGI [8] [µM] | TGI [9] [µM] | GI50 [1] [µM] | GI50 [3] [µM] | GI50 [8] [µM] | GI50 [9] [µM] | GI50 [10] [µM] | TGI [10] [µM] | GI50 [6] [µM] | GI50 [7] [µM] | GI50 [4] [µM] | GI50 [2] [µM] | GI50 [5] [µM]
NC(=O)c1csc(C2CCC(CO)O2)n1 (stereo not drawn) | > 100 | > 100 | > 100 | > 100 | > 100 | > 100 | > 100 | > 100 | – | – | – | – | – | – | – | – | – | – | – | –
CS(=O)(=O)NNS(=O)(=O)c1ccc(Cl)cc1 | > 100 | > 100 | > 100 | > 100 | > 100 | > 100 | > 100 | > 100 | – | – | – | – | – | – | – | – | – | – | – | –
O=C(CSc1nc(-c2ccccc2)c(-c2ccccc2)[nH]1)NNC(=S)Nc1ccccc1 | > 100 | > 100 | > 100 | > 100 | > 100 | > 100 | > 100 | > 100 | – | – | – | – | – | – | – | – | – | – | – | –
CCn1c(=O)c2c3ccc(OC(C)=O)cc3[nH]c2c2ccc(OC(C)=O)cc21 | – | – | > 100 | > 100 | > 100 | 30.1 | > 100 | > 100 | > 100 | – | – | – | – | – | > 100 | – | – | – | – | –
CC(/C=C/NNC1=NC(c2ccccc2)C(c2ccccc2)=NN1)Sc1ccccc1N (stereo not drawn) | 26.6 | 11.4 | 13.6 | 22.4 | 19.5 | 21.8 | 33.7 | 20 | – | – | – | – | – | – | – | – | – | – | – | –
COC(=O)c1ccc(C(=O)OC)c2nc3cc(C)ccc3nc12 | > 100 | > 100 | > 100 | > 100 | > 100 | – | > 100 | > 100 | – | – | – | – | – | – | – | – | – | – | – | –
COc1cc2c3c(ncc2c(OC)c1OC)-c1cc2c(cc1C3)OCO2 | – | – | > 100 | > 100 | – | 36.5 | – | > 100 | 29.5 | – | 33.7 | 54 | 11.5 | 13.3 | 37.5 | 22.1 | – | 29.8 | – | –
O=C(N/N=C/c1ccc(Cl)cc1)c1[nH]c2ccc(Cl)cc2c1-c1ccccc1 | > 100 | > 37.4 | > 34.7 | 2.58 | 32.6 | 1.56 | 36.4 | > 79.3 | 0.633 | 15.4 | 0.294 | 0.183 | 0.201 | – | – | 0.114 | 0.494 | 0.0815 | 0.12 | 0.132
CC1=C(/C=C/C(C)=C/C=C/C(C)=C/C=C/C=C(C)/C=C/C=C(C)/C=C/C2=C(C)C(=O)C(O)CC2(C)C)C(C)(C)CC(O)C1=O (stereo not drawn) | > 100 | > 100 | > 100 | > 100 | > 100 | > 100 | > 100 | > 100 | – | – | – | – | – | – | – | – | – | – | – | –
O=C(O)Cc1ccccc1CCc1ccccc1Cl | > 100 | > 100 | > 100 | > 100 | > 100 | > 100 | – | > 100 | – | – | – | – | – | – | – | – | – | – | – | –
CCCCN(CC)c1ncnc2ccc(Br)cc12 | 23.6 | 38.7 | 39.7 | 38.3 | 34.2 | 36.2 | 34 | > 100 | – | 10.2 | 18.9 | 22.1 | – | 13.1 | 35.9 | 15.8 | 16.9 | 17.8 | 17.9 | 14
COC(=O)[C@@]1(C)CCC[C@]2(C(=O)O)C3Cc4occc4[C@H](C)[C@@H]3CCC21 (stereo partly drawn) | > 100 | – | > 100 | > 100 | > 100 | > 100 | > 100 | – | > 100 | – | – | – | – | – | > 100 | – | – | – | – | –
COc1ccc2ccccc2c1CN1CCOCCOCCN(Cc2c(OC)ccc3ccccc23)CCOCCOCC1 | > 100 | > 100 | > 46.4 | > 100 | > 100 | > 59 | > 100 | > 100 | – | – | – | – | – | – | – | – | – | – | – | –
CC1(C)C(=O)C=CC2(C)C1CC(O)C1(C)C2CCC2(C)C(c3ccoc3)OC(=O)C3OC321 (stereo not drawn) | 28.8 | 38.9 | 28.3 | 53.1 | 26.8 | 31.7 | 85.7 | 38.4 | 36.7 | – | – | – | – | – | – | – | – | – | – | –
Clc1ccc2c(c1)[nH]c1c2nc2sccn21 | > 100 | > 100 | > 100 | > 100 | > 100 | > 100 | > 100 | > 100 | – | – | – | – | – | – | – | – | – | – | – | –
CCC[CH2][Sn]1([CH2]CCC)[O]C(=O)c2ccc(N)cc2[O]1 | 0.763 | 1.45 | 1.61 | 2.76 | 2.49 | 2.19 | 2.82 | 2.59 | 1.42 | 0.278 | 0.41 | 1.29 | 0.185 | – | – | 0.965 | 1.35 | 1.41 | 0.287 | 0.909

Source: PubChem BioAssay (NCI)
